Test results published in ChEMBL document CHEMBL4118049, “HPLC-Based Activity Profiling for GABAA Receptor Modulators in Extracts: Validation of an Approach Utilizing a Larval Zebrafish Locomotor Assay” (J Nat Prod, 2017).
Calls of active or inactive are those of the source. The rule behind the calls is not given here.

Tests used:
Danio rerio [1] = species on record: Danio rerio; experiment: Anticonvulsant activity in 7-days post fertilized zebra fish larvae assessed as reduction in pentylenetetrazol-induced locomotor activity by measuring total distance traveled by larvae at 1.5 to 6 uM pretreated for 3 hrs followed by pentylenetetrazol addition measured at 5 mins interval 30 mins; type: functional, organism-based
Danio rerio [2] = species on record: Danio rerio; experiment: Toxicity in 7-days post fertilized zebra fish larvae after 1.5 to 24 hrs by microscopic analysis; type: organism-based; settings: zebrafish, in vivo
Danio rerio [3] = species on record: Danio rerio; experiment: Anticonvulsant activity in 7-days post fertilized zebra fish larvae assessed as reduction in pentylenetetrazol-induced locomotor activity by measuring total distance traveled by larvae pretreated for 3 hrs followed by pentylenetetrazol addition measured at 5 mins interval 30 mins; type: functional, organism-based
Danio rerio [4] = species on record: Danio rerio; experiment: Anticonvulsant activity in 7-days post fertilized zebra fish larvae assessed as reduction in pentylenetetrazol-induced locomotor activity by measuring total distance traveled by larvae at 0.25 to 2 uM pretreated for 3 hrs followed by pentylenetetrazol addition measured at 5 mins interval 30 mins; type: functional, organism-based
Danio rerio [5] = species on record: Danio rerio; experiment: Anticonvulsant activity in 7-days post fertilized zebra fish larvae assessed as reduction in pentylenetetrazol-induced locomotor activity by measuring total distance traveled by larvae at 1.25 to 10 uM pretreated for 3 hrs followed by pentylenetetrazol addition measured at 5 mins interval 30 mins; type: functional, organism-based

Structure (SMILES) | Activity (Danio rerio [1]) | MTD (Danio rerio [2]) [µM] | Activity (Danio rerio [3]) | Activity (Danio rerio [4]) | Activity (Danio rerio [5])
CC(C)c1ccc2c(c1)CC[C@H]1[C@](C)(C(=O)O)CCC[C@]21C [DEHYDROABIETIC ACID] | Active | 6 | – | – | –
CN1C(=O)CN=C(c2ccccc2)c2cc(Cl)ccc21 [DIAZEPAM] | – | 20 | Dose-dependent effect | – | –
C=CCc1ccc(O)c(-c2cc(CC=C)ccc2O)c1 [MAGNOLOL] | – | 4 | Dose-dependent effect | – | –
O=C(/C=C/C=C/c1ccc2c(c1)OCO2)N1CCCCC1 [PIPERINE] | – | 12 | Dose-dependent effect | – | –
C=C[C@]1(C)C=C2CC[C@@H]3[C@](C)(CCC[C@@]3(C)C(=O)O)[C@H]2CC1 [SANDARACOPIMARIC ACID] | – | 2 | – | Active | –
CC(C)=CC[C@]12Oc3cc(O)c([C@H]4C=C(C)C[C@H](c5ccc(O)cc5O)[C@H]4C(=O)c4ccc(O)cc4O)c(O)c3C(=O)[C@@]1(O)Oc1cc(O)ccc12 [SANGGENON C] | – | 2 | – | inactive | –
C=C(C)[C@H](CC=C(C)C)Cc1c(O)cc(O)c2c1O[C@H](c1ccc(O)cc1O)CC2=O [SOPHORAFLAVANONE G] | – | 10 | – | – | Active
CC1=C2[C@H](/C=C(\C)C(=O)O)CC[C@@H](C)[C@H]2CC1 [VALERENIC ACID] | – | 10 | Dose-dependent effect | – | –
